Data set [1] deals with MERS-CoV (strain EMC/2012). In words: microbe, parasite or virus in culture. Format: cell-based. As to conditions: for EC50: Middle East respiratory syndrome-related coronavirus, Huh-7, read-out: EC50: Effective concentration showing 50% inhibition of virus-induced CPE.
The test system of data set [2] is MERS-CoV (strain EMC/2012). In words: microbe, parasite or virus in culture. As to conditions: Middle East respiratory syndrome-related coronavirus, Vero, read-out: EC50: Effective concentration showing 50% inhibition of virus-induced CPE. Type of data set: cell-based.
Data set [3] deals with Huh7 cells. Particulars: human.
In data set [4] the test system is Vero cells. As to conditions: African green monkey.
For data set [5], the system named is SARS-CoV (strain Frankfurt-1).
Data set [6] has as its system VeroE6 cells. Particulars: African green monkey.
For data set [7], the system named is SARS-CoV or MERS-CoV. Particulars: cited from earlier work.
The subject of data set [8] is HIV-1 and HSV-2. Particulars: when McGuigan's ProTide technology was employed, cited from earlier work.
For data set [9], the system named is SARS-CoV (strain Frankfurt-1). In words: microbe, parasite or virus in culture. As to conditions: Severe acute respiratory syndrome coronavirus.
Data set [10] concerns HCoV-NL63. The data set can be described thus: NL63-CoV antiviral assay (CPE scored microscopically).
Data set [11] is described as follows: Cytotoxicity in Vero118 cells (NL63 assay, cell viability scored microscopically). Particulars: African green monkey, Vero118 cells, CC50: Cytotoxic concentration showing 50% inhibition of cell survival, Vero118 (HCoV-NL63 assay).
Data set [12] can be described thus: in vitro. As to conditions: human.
Data set [13] deals with Vero118 cells. The data set can be described thus: Cytotoxicity in Vero118 cells (NL63 assay, cell viability scored microscopically). As to conditions: read-out: CC50: Cytotoxic concentration showing 50% inhibition of cell survival; Vero118 (HCoV-NL63 assay).
Data set [14] has as its system coronavirus. Particulars: coronavirus replication in vitro; cited from earlier work.
The test system of data set [15] is other viruses. As to conditions: cited from earlier work.
[16] abbreviates: Vero C1008, read-out: EC50: Effective concentration showing 50% inhibition of virus-induced CPE.
Where [17] appears, read: Human coronavirus NL63, read-out: EC50: Effective concentration showing 50% inhibition of virus-induced CPE, HCoV-NL63 in Vero118.

The values below come from patent US10058516B2, “Design, synthesis and methods of use of acyclic fleximer nucleoside analogues having anti-coronavirus activity” (priority 2015, dated 2018).

Read-outs that look alike come from different tables or passages of the source. Where only a bound is given, the exact number is not on record here.

With `Nc1nc2c(ncn2COCCO)c(=O)[nH]1` [Acyclovir, acyclovir, reference compound], the “block the replication of MERS-CoV” value in [1] is on record as “had no effect”. The EC50 in [1] was greater than 1000 µM; in data set [2] it was greater than 1000 µM; in data set [9] (setting [16]) it was greater than 1000 µM; in [10] (setting [17]), greater than 100 µM. Besides, the CC50 in data set [3], in data set [4] and in data set [6] was greater than 1 mM each time. Further, the “block the replication of SARS-CoV” value in [5] was “had no effect”. The “activity against SARS-CoV or MERS-CoV in vitro” value (“activity … in vitro” below) in [7] is on record as “none of these well-known antiviral drugs exhibited any activity”. The “suppression of replication of both HIV-1 and HSV-2” value in [8] (CD4+ T cells) is 3 to 12 µmol/L; in [8] (lymphoid and cervicovaginal human tissues) it was “submicromolar range”. Moreover, in data set [11], the CC50 at 5 days was greater than 100 µM.
Consider `OCCOCn1cnc(-c2cnc(O)nc2O)c1` [Compound 1, 5-(1-((2-hydroxyethoxy)methyl)-1H-imidazol-4-yl)pyrimidine-2,4-diol], for which the EC50 in data set [10] (setting [17]) came out at 92 ± 68 µM. In [11], this compound registered a CC50 at 5 days greater than 200 µM.
As to `COc1nc(N)ncc1-c1cn(COCCO)cn1` [Compound 2, 2-((4-(2-amino-4-methoxypyrimidin-5-yl)-1H-imidazol-1-yl)methoxy)ethan-1-ol], the “block the replication of MERS-CoV” value in data set [1] is “can block the replication of MERS-CoV”. The EC50 in data set [1] is 13.5 µM; in data set [2] it was 10.1 ± 1.2 µM; in data set [9] (setting [16]) it was 28.1 ± 0.2 µM; in data set [10] (setting [17]), less than 10 µM; in data set [10] (read-out: EC50: Effective concentration showing 50% inhibition of virus-induced CPE, HCoV-NL63 in Vero118), 8.8 ± 1.5 µM. Further, the results for the CC50 in data set [12] and in data set [13] were 54 ± 1.7 µM and 120 ± 37 µM, respectively. Besides, the “selective antiviral activity (CC50>10×)” value in data set [10] (HCoV-NL63 in Vero118, CC50 relative to EC50) is reported as greater than 10 ×. Besides, the CC50 at 5 days in data set [11] is greater than 100 µM.
For the compound `Nc1ncc(-c2cn(COCCO)cn2)c(O)n1` [Compound 3, 2-amino-5-(1-((2-hydroxyethoxy)methyl)-1H-imidazol-4-yl)pyrimidin-4(3H)-one], in data set [10] (setting [17]), the EC50 was greater than 200 µM. Moreover, in data set [11], the CC50 at 5 days was greater than 200 µM.
`COc1nc(N)ncc1-c1cn(COCCOC(C)=O)cn1` [Compound 19, 2-((4-(2-amino-4-methoxypyrimidin-5-yl)-1H-imidazol-1-yl)methoxy)ethyl acetate]: the “block the replication of MERS-CoV” value in data set [1] was “can block the replication”. The EC50 is 5.3 ± 0.7 µM in [1], 3.4 ± 0.3 µM in data set [2], less than 12 µM in [9] (Vero C1008) and 11.9 ± 0.2 µM in data set [9] (setting [16]). Also, the “CC50 as multiple of the EC50” value in data set [5] is on record as roughly 3 times the EC50. For the same compound, the “block the replication of SARS-CoV” value in [5] was “can block the replication”. Further, in data set [12], the CC50 came to 23.4 ± 0.4 µM.
Turning to `NC(=O)c1ncn([C@@H]2O[C@H](CO)[C@@H](O)[C@H]2O)n1` [Ribavirin, ribavirin], the inhibitory concentration in data set [14] was 500 to 5000 µg/mL. Besides, the “inhibitory concentration needed to inhibit other viruses” value in data set [15] is 50 to 100 µg/mL.
In the case of `Nc1nc(O)c2ncn(COC(CO)CO)c2n1` [ganciclovir], the “activity … in vitro” value in [7] is “none of these well-known antiviral drugs exhibited any activity”.
Turning to `Cc1cn([C@H]2C[C@H](N=[N+]=[N-])[C@@H](CO)O2)c(=O)[nH]c1=O` [zidovudine], the “activity … in vitro” value in data set [7] is recorded as “none of these well-known antiviral drugs exhibited any activity”.
